In paper PMC7673538 (PLoS Biology, 2020):
Values joined by “and” are separate entries in the source; they are usually repeats but may differ in a detail not shown here. Equal entries are not always repeated. Where two headings read alike, the source gives them in different places.

What was measured:
[1] = test system: HRV-A2; assay: microbe, parasite or virus in culture; format: cell-based, human rhinovirus; conditions: for EC50: Human rhinovirus sp.
[2] = test system: EV-D68 (strain Fermon); format: cell-based, enterovirus D68
[3] = test system: HRV-A2; format: cell-based, human rhinovirus
[4] = test system: HeLa R19 cells
[5] = in vitro; conditions: monkey
[6] = test system: CV-A24v; assay: microbe, parasite or virus in culture; format: cell-based, coxsackievirus A24v; conditions: for EC50: Coxsackievirus
[7] = test system: HRV-B14; format: cell-based, human rhinovirus; conditions: compound concentration 0.1 µM
[8] = test system: CV-B3; assay: microbe, parasite or virus in culture; format: cell-based, coxsackievirus B3; conditions: Enterovirus B
[9] = test system: EV-A71; assay: microbe, parasite or virus in culture; format: cell-based, enterovirus A71; conditions: for EC50: Enterovirus A
[10] = test system: PV-1; assay: microbe, parasite or virus in culture; format: cell-based, poliovirus 1

## COc1ccc(N(Cc2ccc(F)cc2)C(=O)c2ccco2)cc1 [Compound 1, N-(4-fluorobenzyl)-N-(4-methoxyphenyl)furan-2-carboxamide]
[1]; Concentration 0.0412 µM
  Figure 7 dose-response raw data, HRV-A2 (triplicate values): 7.118 and 8.563 and 11.1417
[1]; Concentration 0.1235 µM
  Figure 7 dose-response raw data, HRV-A2 (triplicate values): 6.499 and 7.221 and 5.983
[1]; Concentration 0.3704 µM
  Figure 7 dose-response raw data, HRV-A2 (triplicate values): 11.7607 and 8.975 and 8.666
[1]; Concentration 3.3333 µM
  Figure 7 dose-response raw data, HRV-A2 (triplicate values): 6.087 and 4.436 and 5.983
[1]; Concentration 33.3333 µM
  Figure 7 dose-response raw data, HRV-A2 (triplicate values): 4.849 and 8.666 and 8.769
[1]; Concentration 100 µM
  Figure 7 dose-response raw data, HRV-A2 (triplicate values): 4.849 and 8.666 and 8.769
[1]; HRVA2, HeLa R19, read-out: EC50 HRV-A2
  EC50: > 30 µM
[1]; HRVA2, HeLa R19, read-out: EC50 HRV-A2 Average
  EC50: > 30 µM
[1]; HRVA2, HeLa R19, read-out: EC50 HRV-A2 Experiement 3
  EC50: > 30 µM
[1]; HRVA2, HeLa R19, read-out: EC50 HRV-A2 Experiment 1
  EC50: > 30 µM
[1]; HRVA2, HeLa R19, read-out: EC50 HRV-A2 Experiment 2
  EC50: > 30 µM
[2]; compound concentration 3 µM
  virus titer, TCID50/ml (Figure 2A): 31622.8 TCID50/ml and 21379.6 TCID50/ml and 35481.3 TCID50/ml
[2]; compound concentration 10 µM
  virus titer, TCID50/ml (Figure 2A): 31622.8 TCID50/ml and 21379.6 TCID50/ml and 35481.3 TCID50/ml
[2]; compound concentration 100 µM
  virus titer, TCID50/ml (Figure 2A): 31622.8 TCID50/ml and 21379.6 TCID50/ml and 35481.3 TCID50/ml
[3]; compound concentration 0.1 µM
  virus titer, TCID50/ml (Figure 2A): 316278 TCID50/ml and 312278 TCID50/ml
[3]; compound concentration 0.3 µM
  virus titer, TCID50/ml (Figure 2A): 169824 TCID50/ml and 100000 TCID50/ml
[3]; compound concentration 3 µM
  virus titer, TCID50/ml (Figure 2A): 354813 TCID50/ml
[3]; compound concentration 100 µM
  virus titer, TCID50/ml (Figure 2A): 169824 TCID50/ml and 188844 TCID50/ml
[3]; compound concentration 150 µM
  virus titer, TCID50/ml (Figure 2A): 354813 TCID50/ml and 588844 TCID50/ml
[4]
  cytotoxic effect (in words): did not show any adverse cytotoxic effect
[5]; CC50
  CC50: 50.65 ± 0.32 µM
[5]; CC50 BGM Average
  CC50: 50.6 µM
[5]; Exp 1 CC50 BGM
  CC50: 51 µM
[5]; Exp 2 CC50 BGM
  CC50: 50.3 µM
[6]; Concentration 0.0046 µM
  Figure 7 dose-response raw data, CV-A24v (triplicate values): 10.497 and 8.759 and 8.625
[6]; Concentration 0.0137 µM
  Figure 7 dose-response raw data, CV-A24v (triplicate values): 9.388 and 8.898 and 11.4747
[6]; Concentration 0.0412 µM
  Figure 7 dose-response raw data, CV-A24v (triplicate values): 9.388 and 8.898 and 11.4747
[6]; Concentration 0.1235 µM
  Figure 7 dose-response raw data, CV-A24v (triplicate values): 8.529 and 8.161 and 15.8928
[6]; Concentration 0.3704 µM
  Figure 7 dose-response raw data, CV-A24v (triplicate values): 10.8611 and 15.1565 and 15.6474
[6]; Concentration 1.1111 µM
  Figure 7 dose-response raw data, CV-A24v (triplicate values): 10.0021 and 16.3837 and 13.9292
[6]; Concentration 11.1111 µM
  Figure 7 dose-response raw data, CV-A24v (triplicate values): 8.182 and 7.259 and 9.382
[6]; HeLa R19, read-out: EC50 CV-A24v strain 110386
  EC50: > 30 µM
[6]; HeLa R19, read-out: EC50 CV-A24v strain 110389
  EC50: > 30 µM
[6]; HeLa R19, read-out: EC50 CV-A24v strain 110390
  EC50: > 30 µM
[6]; HeLa R19, read-out: EC50 CV-A24v strain 110392
  EC50: > 30 µM
[7]
  virus titer, TCID50/ml (Figure 2A): 10000000 TCID50/ml
[8]; CVB3, HAP1, read-out: EC50 Hap1 Average
  EC50: 1.57 µM
[8]; CVB3, HAP1, read-out: Exp 1 EC50 Hap1
  EC50: 1.49 µM
[8]; CVB3, HAP1, read-out: Exp 2 EC50 Hap1
  EC50: 1.65 µM
[9]; Concentration 0.0046 µM
  Figure 7 dose-response raw data, EV-A71 (triplicate values): 12.0987 and 12.2161 and 13.2733
[9]; Concentration 0.0137 µM
  Figure 7 dose-response raw data, EV-A71 (triplicate values): 11.5913 and 20.0727 and 21.6478
[9]; Concentration 0.0412 µM
  Figure 7 dose-response raw data, EV-A71 (triplicate values): 13.4087 and 20.6785 and 25.0404
[9]; Concentration 0.1235 µM
  Figure 7 dose-response raw data, EV-A71 (triplicate values): 12.0987 and 12.2161 and 13.2733
[9]; Concentration 0.3704 µM
  Figure 7 dose-response raw data, EV-A71 (triplicate values): 11.5913 and 20.0727 and 21.6478
[9]; Concentration 1.1111 µM
  Figure 7 dose-response raw data, EV-A71 (triplicate values): 13.4087 and 20.6785 and 25.0404
[9]; Concentration 3.3333 µM
  Figure 7 dose-response raw data, EV-A71 (triplicate values): 12.0987 and 12.2161 and 13.2733
[9]; Concentration 11.1111 µM
  Figure 7 dose-response raw data, EV-A71 (triplicate values): 11.5913 and 20.0727 and 21.6478
[9]; Concentration 33.3333 µM
  Figure 7 dose-response raw data, EV-A71 (triplicate values): 13.4087 and 20.6785 and 25.0404
[9]; Concentration 100 µM
  Figure 7 dose-response raw data, EV-A71 (triplicate values): 11.5913 and 20.0727 and 21.6478
[9]; EVA71, HeLa R19, read-out: EC50 EV-A71
  EC50: > 30 µM
[9]; EVA71, HeLa R19, read-out: EC50 EV-A71 Average
  EC50: > 30 µM
[9]; EVA71, HeLa R19, read-out: EC50 EV-A71 Experiement 3
  EC50: > 30 µM
[9]; EVA71, HeLa R19, read-out: EC50 EV-A71 Experiment 1
  EC50: > 30 µM
[9]; EVA71, HeLa R19, read-out: EC50 EV-A71 Experiment 2
  EC50: > 30 µM
[9]; EVA71, HeLa R19, read-out: EC50 EV-A71 strain BrCr
  EC50: > 30 µM
[9]; EVA71, HeLa R19, read-out: EC50 EV-A71 strain TW/2728/04
  EC50: > 30 µM
[9]; EVA71, HeLa R19, read-out: EC50 EV-A71 strain TW/2945/98
  EC50: > 30 µM
[9]; EVA71, HeLa R19, read-out: EC50 EV-A71 strain TW/70811/08
  EC50: > 30 µM
[9]; EVA71, HeLa R19, read-out: EC50 EV-A71 strain TW/72232/04
  EC50: > 30 µM
[9]; EVA71, HeLa R19, read-out: EC50 EV-A71 strain TW/96016/08
  EC50: > 30 µM
[10]; Concentration 0.0046 µM
  Figure 7 dose-response raw data, PV-1 (triplicate values): 10.497 and 8.759 and 8.625
[10]; Concentration 0.0137 µM
  Figure 7 dose-response raw data, PV-1 (triplicate values): 10.497 and 8.759 and 8.625
[10]; Concentration 0.0412 µM
  Figure 7 dose-response raw data, PV-1 (triplicate values): 10.497 and 11.7005 and 9.1598
[10]; Concentration 0.1235 µM
  Figure 7 dose-response raw data, PV-1 (triplicate values): 10.7644 and 8.357 and 9.1598
[10]; Concentration 0.3704 µM
  Figure 7 dose-response raw data, PV-1 (triplicate values): 13.4388 and 8.357 and 9.294
